According to patent US20230295260A1, “GLP RECEPTOR AGONISTS” (HEPTARES THERAPEUTICS LIMITED, priority 2020, published 2023):
Non-standard residues stand in square brackets, D forms with d. Residues, ends and D or L forms follow the SMILES beside them. *: point of attachment. Malonyl(2,2-Me2,histaminyl) = CC(C)(C(=O)NCCc1cnc[nH]1)C(=O)*; Ala(1H-tetrazol-5-yl) = N[C@@H](Cc1nnn[nH]1)C(=O)O; αMeL = CC(C)C[C@](C)(N)C(=O)O; Nle = CCCC[C@H](N)C(=O)O; Alloc = C=CCOC(=O)*

How the values were obtained:
C57BL/6J male mice [1] = test: Effect on intestinal wet weight in normal mice (FIG. 1); format: in vivo, mouse; details: once daily sc 270 nmol/kg (liraglutide iv 200 ug/kg), sacrificed on day 3, vs. vehicle
Procedure: Mice were sacrificed on day 3 and the wet weight of the small intestine was quantified. GLP-2 active peptides show significant enhancement of the small intestinal weight. […] N=6 animals / grp. *p < 0.05 vs. vehicle
C57BL/6J male mice (Charles River, Italy, ~8 weeks) are randomly allocated to the treatment group based on the baseline body weights. Animals are given free access to food and water during the whole duration of the study. Mice are dosed daily with the test compounds via subcutaneous injection. […] The abdominal cavity will be opened and the intestinal tissue is excised carefully to avoid perforation. Tissue from the upper small intestine (15 cm segment from the pylorus) is collected. The bowel is cleaned by flushing through with ice cold PBS to remove any feces.

human GLP1 receptor = target: T1, human GLP1 receptor (Homo sapiens, UniProt P43220); test: cAMP accumulation assay (HTRF), functional agonism of human GLP1 receptor in HEK cells; format: cell-based; details: HEK cells, human GLP1 receptor BacMam, 45 min 37° C.; for Emax: HEK293, read-out: Human GLP-1R agonist cAMP Emax; for EC50: read-out: Human GLP-1R agonist cAMP pEC50 (converted)
T1 construct: expressed in transfected cells; host or cells: HEK cells, BacMam virus transduction

human GLP2 receptor = target: T2, human GLP2 receptor (Homo sapiens, UniProt O95838); test: cAMP accumulation assay (HTRF), functional agonism of human GLP2 receptor in HEK cells; details: for Emax: HEK293, read-out: Human GLP-2R agonist cAMP Emax;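 as to all read-outs here: HEK cells transduced via BacMam to express human GLP2 receptor, agonist-stimulated cAMP measured by HTRF after 45 min at 37 °C in HBSS with 0.5 mM IBMX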
T2 sequence (O95838 1-553): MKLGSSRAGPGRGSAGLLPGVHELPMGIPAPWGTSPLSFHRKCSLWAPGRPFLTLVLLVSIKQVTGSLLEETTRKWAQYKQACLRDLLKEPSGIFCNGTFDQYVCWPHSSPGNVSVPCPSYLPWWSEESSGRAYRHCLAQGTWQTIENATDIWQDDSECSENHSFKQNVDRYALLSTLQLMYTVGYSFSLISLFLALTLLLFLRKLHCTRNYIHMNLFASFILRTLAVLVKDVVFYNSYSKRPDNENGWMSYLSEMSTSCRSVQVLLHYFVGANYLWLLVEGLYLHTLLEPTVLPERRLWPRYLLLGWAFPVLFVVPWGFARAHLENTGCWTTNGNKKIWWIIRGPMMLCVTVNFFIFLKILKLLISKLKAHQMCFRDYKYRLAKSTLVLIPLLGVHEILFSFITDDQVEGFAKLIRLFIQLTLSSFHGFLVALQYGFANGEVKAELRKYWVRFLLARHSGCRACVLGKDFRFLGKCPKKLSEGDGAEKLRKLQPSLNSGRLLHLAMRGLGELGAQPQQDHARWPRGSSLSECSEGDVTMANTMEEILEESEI
Procedure: The functional activity of the peptides were assessed using a HTRF cAMP assay. pEC50 values are quoted.
cAMP production upon agonist stimulation of human GLP2 or GLP1 receptor was assessed utilizing HiRange cAMP kit (Cisbio). In brief, HEK cells were infected with either human GLP2 or GLP1 receptor BacMam virus for 24 hours and frozen for later use in the assay. […] Cells were prepared in the assay buffer (HBSS (Lonza) supplemented with 0.5 mM IBMX (Tocris)). After 45 min incubation at 37° C., the reaction was stopped by addition of the HTRF detection reagents in the lysis buffer provided in the kit.

mouse GLP2 receptor = target: T3, mouse GLP2 receptor (Mus musculus, UniProt Q5IXF8); test: cAMP accumulation assay (HTRF), functional agonism of mouse GLP2 receptor in HEK cells; format: cell-based; details: HEK cells transiently transfected, 45 min 37° C.; for Emax: HEK293, read-out: Mouse GLP-2R agonist cAMP Emax; for EC50: read-out: Mouse GLP-2R agonist cAMP pEC50 (converted)
T3 construct: expressed in transfected cells; host or cells: HEK cells, transient transfection with GeneJuice
T3 sequence (Q5IXF8 1-512): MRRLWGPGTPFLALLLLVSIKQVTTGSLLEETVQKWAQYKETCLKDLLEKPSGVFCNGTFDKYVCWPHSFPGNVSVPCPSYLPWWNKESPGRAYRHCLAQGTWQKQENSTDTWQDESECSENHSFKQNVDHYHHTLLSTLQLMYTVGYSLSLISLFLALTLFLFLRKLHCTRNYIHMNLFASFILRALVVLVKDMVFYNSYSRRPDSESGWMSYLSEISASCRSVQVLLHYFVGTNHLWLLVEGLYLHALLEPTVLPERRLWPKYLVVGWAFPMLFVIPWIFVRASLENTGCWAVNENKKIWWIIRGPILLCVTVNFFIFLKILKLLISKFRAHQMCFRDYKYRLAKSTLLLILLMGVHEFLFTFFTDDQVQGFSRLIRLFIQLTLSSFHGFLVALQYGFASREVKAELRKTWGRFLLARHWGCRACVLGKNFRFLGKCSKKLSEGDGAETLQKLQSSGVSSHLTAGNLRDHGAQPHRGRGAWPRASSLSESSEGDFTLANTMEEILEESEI

mouse GLP1 receptor = target: T4, mouse GLP1 receptor (Mus musculus, UniProt O35659); test: cAMP accumulation assay (HTRF), functional agonism of mouse GLP1 receptor in HEK cells; format: cell-based; details: HEK cells transiently transfected, 45 min 37° C.; for Emax: HEK293, read-out: Mouse GLP-1 R agonist cAMP Emax; for EC50: read-out: Mouse GLP-1 R agonist cAMP pEC50 (converted)
T4 construct: expressed in transfected cells; host or cells: HEK cells, transient transfection with GeneJuice
T4 sequence (O35659 22-463): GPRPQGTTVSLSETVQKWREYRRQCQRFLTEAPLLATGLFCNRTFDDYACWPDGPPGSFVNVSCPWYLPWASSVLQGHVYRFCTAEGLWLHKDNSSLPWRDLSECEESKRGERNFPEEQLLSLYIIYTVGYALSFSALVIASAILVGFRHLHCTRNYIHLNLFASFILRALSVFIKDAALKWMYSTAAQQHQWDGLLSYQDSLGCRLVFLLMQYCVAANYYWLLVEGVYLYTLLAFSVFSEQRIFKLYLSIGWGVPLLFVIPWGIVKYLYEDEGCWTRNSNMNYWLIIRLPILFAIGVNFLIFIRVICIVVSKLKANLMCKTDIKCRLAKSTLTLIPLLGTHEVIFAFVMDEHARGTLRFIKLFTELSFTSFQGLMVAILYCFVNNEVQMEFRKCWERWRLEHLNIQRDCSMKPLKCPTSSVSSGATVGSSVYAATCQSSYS

C57BL/6J male mice [2] = test: Dose response effect on intestinal mass in normal mice, 7 day dosing (FIG. 2); format: in vivo, mouse; details: daily sc
Procedure: The enhancement of the small bowel wet weight (over vehicle) is plotted as a function of the peptide dose. […] N=6 animals I grp.
C57BL/6J male mice (Charles River, Italy, ~8 weeks) are randomly allocated to the treatment group based on the baseline body weights. Animals are given free access to food and water during the whole duration of the study. Mice are dosed daily with the vehicle or test peptides via subcutaneous injection. On day 7, animals are sacrificed and segments from the upper small intestine (15 cm segment from the pylorus) are collected and weighed (see Example B).

T1 sequence (P43220 24-463): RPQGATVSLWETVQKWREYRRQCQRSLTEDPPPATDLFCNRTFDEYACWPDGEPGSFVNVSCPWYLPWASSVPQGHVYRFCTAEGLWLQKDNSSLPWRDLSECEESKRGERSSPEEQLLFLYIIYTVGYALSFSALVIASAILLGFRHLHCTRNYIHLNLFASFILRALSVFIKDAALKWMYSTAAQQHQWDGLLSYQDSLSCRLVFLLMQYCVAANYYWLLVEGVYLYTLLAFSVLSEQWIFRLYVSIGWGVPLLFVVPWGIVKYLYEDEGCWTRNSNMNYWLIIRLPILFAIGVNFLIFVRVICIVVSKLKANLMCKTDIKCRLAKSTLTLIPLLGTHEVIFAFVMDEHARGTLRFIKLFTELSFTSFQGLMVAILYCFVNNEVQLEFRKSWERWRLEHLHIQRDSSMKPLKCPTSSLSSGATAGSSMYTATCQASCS

Row | Emax (human GLP1 receptor) | EC50 (human GLP1 receptor) | Emax (human GLP2 receptor) | Emax (mouse GLP2 receptor) | EC50 (mouse GLP2 receptor) | Emax (mouse GLP1 receptor) | EC50 (mouse GLP1 receptor) | EC50 (human GLP2 receptor) | Compound | wet weight of the small intestine (C57BL/6J male mice [1]) | enhancement of small bowel wet weight (over vehicle) as a function of dose (C57BL/6J male mice [2])
1 | 60.3% | 316 nM | 101% | 100% | 0.00794 nM | 1% | > 794 nM | – | CC[C@H](C)[C@H](NC(=O)[C@H](Cc1ccccc1)NC(=O)[C@H](CC(=O)O)NC(=O)[C@H](CCCNC(=N)N)NC(=O)[C@H](C)NC(=O)[C@H](C)NC(=O)[C@H](CC(C)C)NC(=O)[C@H](CC(N)=O)NC(=O)[C@H](CC(=O)O)NC(=O)[C@H](CC(C)C)NC(=O)[C@@H](NC(=O)[C@@H](NC(=O)[C@H](CC(N)=O)NC(=O)[C@H](CCSC)NC(=O)[C@H](CCC(=O)O)NC(=O)[C@H](CC(=O)O)NC(=O)[C@H](CO)NC(=O)[C@H](Cc1ccccc1)NC(=O)[C@H](CO)NC(=O)CNC(=O)[C@H](CC(=O)O)NC(=O)CNC(=O)[C@@H](N)Cc1c[nH]cn1)[C@@H](C)O)[C@@H](C)CC)C(=O)N[C@@H](CC(N)=O)C(=O)N[C@@H](Cc1c[nH]c2ccccc12)C(=O)N[C@@H](CC(C)C)C(=O)N[C@H](C(=O)N[C@@H](CCC(N)=O)C(=O)N[C@H](C(=O)N[C@@H](CCCCN)C(=O)N[C@H](C(=O)N[C@H](C(=O)N[C@@H](CC(=O)O)C(=O)O)[C@@H](C)O)[C@@H](C)CC)[C@@H](C)O)[C@@H](C)CC [Teduglutide, reference compound] | Significant enhancement of intestinal wet weight | dose dependent enhancements in the wet weight of the small intestine
2 | 93.4% | 2.51 nM | 100% | 101% | 3.98 nM | 92.3% | 3.16 nM | 0.00794 nM | C=CCOC(=O)NCCCC[C@H](NC(=O)[C@H](CC(C)C)NC(=O)[C@H](CC(=O)O)NC(=O)[C@H](CC(C)C)NC(=O)[C@@H](NC(=O)[C@@H](NC(=O)[C@@H](Cc1ccccc1)NC(=O)[C@H](CCCC)NC(=O)[C@H](CCC(=O)O)NC(=O)[C@H](CC(=O)O)NC(=O)[C@H](CO)NC(=O)[C@H](Cc1ccccc1)NC(=O)[C@H](CO)NC(=O)CNC(=O)[C@H](Cc1nn[nH]n1)NC(=O)C(C)(C)C(=O)NCCc1c[nH]cn1)[C@@H](C)O)[C@@H](C)CC)C(=O)N[C@@H](C)C(=O)N[C@@H](C)C(=O)N[C@@H](CCCCN)C(=O)N[C@@H](CC(=O)O)C(=O)N[C@@H](Cc1ccccc1)C(=O)N[C@H](C(=O)N[C@@H](CC(N)=O)C(=O)N[C@@H](Cc1c[nH]c2ccccc12)C(=O)N[C@@H](CC(C)C)C(=O)N[C@H](C(=O)N[C@@H](CCC(N)=O)C(=O)N[C@H](C(=O)N[C@@H](CCCCN)C(=O)N[C@@](C)(CC(C)C)C(=O)N[C@H](C(=O)N[C@@H](CC(=O)O)C(N)=O)[C@@H](C)O)[C@@H](C)O)[C@@H](C)CC)[C@@H](C)CC [Example 13] ({Malonyl(2,2-Me2,histaminyl)}-[Ala(1H-tetrazol-5-yl)]GSFSDE[Nle][dF]TILDLK(Alloc)AAKDFINWLIQTK[αMeL]TD-NH2) | – | –
3 | 61.4% | 158 nM | 101% | 98.1% | 0.0316 nM | 53.4% | > 50.1 nM | 0.0158 nM | CCCC[C@H](NC(=O)[C@H](CCC(=O)O)NC(=O)[C@H](CC(=O)O)NC(=O)[C@H](CO)NC(=O)[C@H](Cc1ccccc1)NC(=O)[C@H](CO)NC(=O)CNC(=O)[C@H](CC(=O)O)NC(=O)CNC(=O)[C@@H](N)Cc1cnc[nH]1)C(=O)N[C@H](Cc1ccccc1)C(=O)N[C@H](C(=O)N[C@H](C(=O)N[C@@H](CC(C)C)C(=O)N[C@@H](CC(=O)O)C(=O)N[C@@H](CC(C)C)C(=O)N[C@@H](CC(C)C)C(=O)N[C@@H](C)C(=O)N[C@@H](C)C(=O)N[C@@H](CCCNC(=N)N)C(=O)N[C@@H](CC(=O)O)C(=O)N[C@@H](Cc1ccccc1)C(=O)N[C@H](C(=O)N[C@@H](CC(N)=O)C(=O)N[C@@H](Cc1c[nH]c2ccccc12)C(=O)N[C@@H](CC(C)C)C(=O)N[C@H](C(=O)N[C@@H](CCC(N)=O)C(=O)N[C@H](C(=O)N[C@@H](CCCCN)C(=O)N[C@H](C(=O)N[C@H](C(=O)N[C@@H](CC(=O)O)C(N)=O)[C@@H](C)O)[C@@H](C)CC)[C@@H](C)O)[C@@H](C)CC)[C@@H](C)CC)[C@@H](C)CC)[C@@H](C)O [FE-203799, reference compound] (H-HGDGSFSDE[Nle][dF]TILDLLAARDFINWLIQTKITD-NH2) | – | –
